In patent publication US20070179295A1, “Triazolopyrimidines” (priority 2003, published 2007) one finds logP and chromatographic logP data, which are given here for 51 molecules.

This data set in a line: logP determination through HPLC (EEC directive 79/831 Annex V. A8, gradient method, acetonitrile/0.1% aqueous phosphoric acid). The format is physicochemical. Particulars: for chromatographic logP: HPLC.
The mark [1] stands for this setting: Table 2, precursors of formula (II).
[2] abbreviates: Table 1, compounds of formula (I), HPLC gradient method, acetonitrile/0.1% aqueous phosphoric acid.

The molecule `Clc1nc2nc(C3CC3)nn2c(Cl)c1-c1ccccn1` [Example 118] returned a logP under setting [1] of 1.88.
`COCCN(C)c1c(-c2cc(Cl)sc2Cl)c(Cl)nc2nc(C3CC3)nn12` [Example 58]: under setting [2], the logP is reported as 4.08.
In the case of `FC(F)(F)CNc1c(-c2ccsc2)c(Cl)nc2nc(C3CC3)nn12` [Example 60], the logP under setting [2] is on record as 2.87.
The same measure, in the same setting: for `CC(Nc1c(-c2ncncc2Cl)c(Cl)nc2nc(C3CC3)nn12)C(C)(C)C` (stereo not drawn) [Example 35] the value was 3.39.
Still for that read-out and setting: next, `CC(Nc1c(-c2ccccn2)c(Cl)nc2nc(C3CC3)nn12)C(F)(F)F` (stereo not drawn) [Example 22]: 2.60; `C[C@H](Nc1c(-c2ncc([N+](=O)[O-])cc2Cl)c(Cl)nc2nc(C3CC3)nn12)C(F)(F)F` [Example 19]: 3.26; `CCC(C)Nc1c(-c2cc(Cl)sc2Cl)c(Cl)nc2nc(C3CC3)nn12` (stereo not drawn) [Example 69]: 4.56.
On the same count and under the same terms, next, `CC(Nc1c(-c2ccccn2)c(Cl)nc2nc(C3CC3)nn12)C(C)(C)C` (stereo not drawn) [Example 18]: 3.09.
On to `CC(Nc1c(-c2ncncc2F)c(Cl)nc2nc(C3CC3)nn12)C(F)(F)F` (stereo not drawn) [Example 105], for which the logP under setting [2] is on record as 2.57.
Still for that read-out and setting: for `CCCN(CC1CC1)c1c(-c2cc(Cl)sc2Cl)c(Cl)nc2nc(C3CC3)nn12` [Example 79] the value was 5.71; for `Cc1nc2nc(Cl)c(-c3ncncc3F)c(NC(C)C(F)(F)F)n2n1` (stereo not drawn) [Example 109], 2.03; for `CC(C)c1nc2nc(Cl)c(-c3ncc(C(F)(F)F)cc3Cl)c(NC(C)C(F)(F)F)n2n1` (stereo not drawn) [Example 111], 3.95.
The molecule `Cc1nc2nc(Cl)c(-c3ncccc3C(F)(F)F)c(NC(C)C(C)(C)C)n2n1` (stereo not drawn) [Example 11] displayed a logP under setting [2] of 2.99.
Under setting [2], `CC1CCN(c2c(-c3ccsc3)c(Cl)nc3nc(C4CC4)nn23)CC1` [Example 55] gave a logP of 4.23.
Still for that read-out and setting: next, `Clc1cc(-c2c(Cl)nc3nc(C4CC4)nn3c2N2CCCC2)c(Cl)s1` [Example 82]: 4.37; `FC(F)(F)CNc1c(-c2ncncc2Cl)c(Cl)nc2nc(C3CC3)nn12` [Example 30]: 2.37.
With `CC(C)c1nc2nc(Cl)c(-c3ncncc3Cl)c(NC(C)C(C)(C)C)n2n1` (stereo not drawn) [Example 34], the logP under setting [2] was determined as 3.67.
Still for that read-out and setting: next, `CC(C)CN(C)c1c(-c2cc(Cl)sc2Cl)c(Cl)nc2nc(C3CC3)nn12` [Example 81]: 5.25; `FC(F)(F)CNc1c(-c2cc(Cl)sc2Cl)c(Cl)nc2nc(C3CC3)nn12` [Example 47]: 3.85.
Still for that read-out and setting: next, `CC(C)(C)CNc1c(-c2ccsc2)c(Cl)nc2nc(C3CC3)nn12` [Example 77]: 3.85.
`Clc1cncnc1-c1c(Cl)nc2nc(C3CC3)nn2c1Cl` [Example 116]: under setting [1], the logP is reported as 2.23.
In turn, `Clc1cc(-c2c(Cl)nc3nc(C4CC4)nn3c2N2CCCCCC2)c(Cl)s1` [Example 85] returned a logP under setting [2] of 5.14.
As for `CC(C)CN(C)c1c(-c2ccsc2)c(Cl)nc2nc(C3CC3)nn12` [Example 63], under setting [2], the logP was found to be 3.90.
On the same count and under the same terms, for `CC(Nc1c(-c2ncncc2Cl)c(Cl)nc2nc(C3CC3)nn12)C(F)(F)F` (stereo not drawn) [Example 8] the value was 2.69.
With `CC(Nc1c(-c2ccncc2Cl)c(Cl)nc2nc(C3CC3)nn12)C(F)(F)F` (stereo not drawn) [Example 44], the logP under setting [2] is given as 2.78.
The same measure, in the same setting: for `FC(F)(F)CNc1c(-c2ccncc2Cl)c(Cl)nc2nc(C3CC3)nn12` [Example 40] the value was 2.48.
Still for that read-out and setting: for `CC(C)C(C)Nc1c(-c2ccccn2)c(Cl)nc2nc(C3CC3)nn12` (stereo not drawn) [Example 27] the value was 2.63; for `CC(C)C(C)Nc1c(-c2ccsc2)c(Cl)nc2nc(C3CC3)nn12` (stereo not drawn) [Example 52], 3.81.
Take `Cc1nc2nc(Cl)c(-c3cncnc3C(F)(F)F)c(Cl)n2n1` [Example 117]: the logP under setting [1] is recorded as 2.10.
Consider `Clc1nc2nc(C3CC3)nn2c(N2CCOCC2)c1-c1ccsc1` [Example 73], for which the logP under setting [2] stood at 2.51.
Still for that read-out and setting: next, `CC(C)CC(C)Nc1c(-c2ccsc2)c(Cl)nc2nc(C3CC3)nn12` (stereo not drawn) [Example 61]: 4.14; `COCCNc1c(-c2cc(Cl)sc2Cl)c(Cl)nc2nc(C3CC3)nn12` [Example 76]: 3.55.
Same read-out and setting: next, `CC(C)C(C)Nc1c(-c2ncncc2F)c(Cl)nc2nc(C3CC3)nn12` (stereo not drawn) [Example 104]: 2.79.
Turning to `O=[N+]([O-])c1cccc(-c2c(Cl)nc3nc(C4CC4)nn3c2Cl)n1` [Example 119], under setting [1], the logP stood at 2.91.
In the case of `Cc1nc2nc(Cl)c(-c3ncccc3[N+](=O)[O-])c(NC(C)C(C)(C)C)n2n1` (stereo not drawn) [Example 21], the logP under setting [2] is given as 2.60.
Same read-out and setting: next, `CC1CCN(c2c(-c3ncccc3C(F)(F)F)c(Cl)nc3nc(C4CC4)nn23)CC1` [Example 3]: 3.77.
Still for that read-out and setting: next, `COCCN(C)c1c(-c2ccsc2)c(Cl)nc2nc(C3CC3)nn12` [Example 64]: 2.91; `CCC(C)Nc1c(-c2ccsc2)c(Cl)nc2nc(C3CC3)nn12` (stereo not drawn) [Example 78]: 3.41.
Usually chromatographic logP stands for lipophilicity estimated from chromatographic retention. Read a high chromatographic logP as a more lipophilic compound. Take `Cc1nc2nc(Cl)c(-c3ncccc3C(F)(F)F)c(N[C@@H](C)C(F)(F)F)n2n1` [Example 1, N-{5-chloro-2-methyl-6-[3-(trifluormethyl)-2-pyridinyl][1,2,4]triazolo-[1,5-a]pyrimidin-7-yl}-N-[(1S)-2,2,2-trifluor-1-methylethyl]amine]: the chromatographic logP came out at 2.38.
With `C[C@H](Nc1c(-c2ncccc2[N+](=O)[O-])c(Cl)nc2nc(C3CC3)nn12)C(F)(F)F` (single isomer, unassigned) [Example 17], under setting [2], the logP is on record as 2.65 (Iso- mer).
In turn, `CC(C)C(C)Nc1c(-c2scnc2Cl)c(Cl)nc2nc(C3CC3)nn12` (stereo not drawn) [Example 92] yielded a logP under setting [2] of 3.23.
On the same count and under the same terms, for `CC(C)c1nc2nc(Cl)c(-c3ncncc3Cl)c(NC(C)C(C)C)n2n1` (stereo not drawn) [Example 36] the value was 3.17.
In turn, `Cc1nc2nc(O)c(-c3ncccc3C(F)(F)F)c(O)n2n1` [Example 126] came in with a logP (Table 3, precursors of formula (IV)) of −0.03.
In turn, `CC(Nc1c(-c2scnc2Cl)c(Cl)nc2nc(C3CC3)nn12)C(F)(F)F` (stereo not drawn) [Example 91] had a logP under setting [2] of 2.94.
On the same count and under the same terms, for `CC(Nc1c(-c2ncccc2C(F)(F)F)c(Cl)nc2nc(C3CC3)nn12)C(C)(C)C` (stereo not drawn) [Example 5] the value was 3.75; for `C[C@H](Nc1c(-c2ncccc2[N+](=O)[O-])c(Cl)nc2nc(C3CC3)nn12)C(F)(F)F` (single isomer, unassigned) [Example 16], 2.64; for `CC(Nc1c(-c2ncncc2Cl)c(Cl)nc2nc(C3CC3)nn12)C(C)(C)C` (stereo not drawn) [Example 33], 3.50.
Under “HPLC (gradient method)”, `Cc1nc2nc(Cl)c(-c3ncncc3Cl)c(NC(C)C(F)(F)F)n2n1` [Example 2, N-[5-chloro-6-(5-chloro-4-pyrimidinyl)-2-methyl[1,2,4]triazolo[1,5-a]pyrimidin-7-yl]-N-[(1S)-2,2,2-trifluor-1-methylethyl]amine] gave a chromatographic logP of 2.13.
On to `CC(C)(C)CNc1c(-c2cc(Cl)sc2Cl)c(Cl)nc2nc(C3CC3)nn12` [Example 50], for which, under setting [2], the logP is 5.08.
The same measure, in the same setting: next, `CC(Nc1c(-c2ncccc2[N+](=O)[O-])c(Cl)nc2nc(C3CC3)nn12)C(C)(C)C` (stereo not drawn) [Example 20]: 3.21; `CC(C)Nc1c(-c2cc(Cl)sc2Cl)c(Cl)nc2nc(C3CC3)nn12` [Example 48]: 4.18.
